In PubChem BioAssay (NCI):
Several values for one entry are separate records, joined by “and”; a condition that tells them apart may be missing. Identical values can stand only once.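 Test compounds were applied to cells in 96-well plates for 48 hours at 5 doses. GI50 is the concentration that inhibits growth by half. TGI is the concentration that stops growth completely.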

Tests used:
Assay in all cases: inhibition of tumour cell growth, NCI panel, 48 h
U251 CNS = system: U251 CNS
MDA-MB-231 breast = system: MDA-MB-231 breast
NCI/ADR-RES ovarian = system: NCI/ADR-RES ovarian
SR leukemia = system: SR leukemia
786-0 renal = system: 786-0 renal
T-47D breast = system: T-47D breast
OVCAR-5 ovarian = system: OVCAR-5 ovarian
HT29 colon = system: HT29 colon
MOLT-4 leukemia = system: MOLT-4 leukemia
LOX IMVI melanoma = system: LOX IMVI melanoma

Structure (SMILES)	GI50 (U251 CNS)	TGI (U251 CNS)	GI50 (MDA-MB-231 breast)	TGI (MDA-MB-231 breast)	GI50 (NCI/ADR-RES ovarian)	TGI (NCI/ADR-RES ovarian)	GI50 (SR leukemia)	TGI (SR leukemia)	GI50 (786-0 renal)	TGI (786-0 renal)	GI50 (T-47D breast)	TGI (T-47D breast)	GI50 (OVCAR-5 ovarian)	TGI (OVCAR-5 ovarian)	GI50 (HT29 colon)	TGI (HT29 colon)	GI50 (MOLT-4 leukemia)	TGI (MOLT-4 leukemia)	GI50 (LOX IMVI melanoma)	TGI (LOX IMVI melanoma)
CCN(CC)c1ccc2nc3ccc(=[N+](CC)CC)cc-3oc2c1	0.119 µM	> 100 µM	0.0667 µM	2.96 µM	6.52 µM	> 73.3 µM	0.424 µM	> 44.3 µM	1.18 µM	2.6 µM	0.105 µM	1.18 µM	0.442 µM	2.92 µM	0.182 µM	2.67 µM	0.286 µM	> 100 µM	0.11 µM	1.59 µM
COc1cc(-c2nccc3[nH]c(-c4ccc5cc[nH]c5c4)nc23)cc(OC)c1OC	< 0.01 µM	1.85 µM	< 0.01 µM	1.96 µM	0.01 µM	10.7 µM	< 0.01 µM	11.9 µM	< 0.01 µM	2.03 µM	1.26 µM	4.38 µM	1.3 µM	12.1 µM	< 0.01 µM	1.08 µM	< 0.01 µM	7.26 µM	< 0.01 µM	1.5 µM
CC(=O)O[C@H]1CC2C(C3CC[C@H](C(C)CCC(=O)O)[C@]31C)[C@H](OC(C)=O)C[C@@H]1CC3(CC[C@]21C)OOC1(CCC(C)CC1)OO3 (stereo not given in full)	–	17.2 µM and 3.71 µM	9.81 µM and 2.79 µM	29.2 µM and 7.65 µM	4.88 µM and 2.02 µM	18.3 µM and 4.53 µM	–	3.82 µM and 3.94 µM	7.66 µM and 1.81 µM	20.3 µM and 3.81 µM	–	14.1 µM and 8.75 µM	10.6 µM and 4.54 µM	22.7 µM and 16 µM	–	12.5 µM and 10.4 µM	–	10.6 µM and 3.79 µM	–	–
COc1ccccc1CNCCN1C(=O)c2ccc3c4c(ccc(c24)C1=O)C(=O)N(CCNCc1ccccc1OC)C3=O	0.225 µM	0.505 µM	0.277 µM	0.817 µM	0.283 µM	0.831 µM	0.178 µM	0.581 µM	0.187 µM	0.37 µM	0.481 µM	1.27 µM	0.68 µM	3.34 µM	0.215 µM	0.447 µM	0.252 µM	0.65 µM	0.168 µM	0.338 µM
CCOC(=O)/C(=C\c1cccc(C)c1)C(C)=O	–	26.2 µM	–	28.9 µM	–	79.5 µM	–	84.5 µM	–	26.4 µM	–	46.7 µM	–	31 µM	–	> 100 µM	–	66.6 µM	–	26.5 µM
COCCN(CCOC)c1nc(-c2ccccc2)nc2ccccc12	70.1 µM	> 100 µM	59.4 µM	> 100 µM	21.3 µM	61.2 µM	34.4 µM	> 100 µM	25.6 µM	> 100 µM	26.9 µM	> 100 µM	21.9 µM	46.3 µM	–	–	28.3 µM	> 100 µM	34.7 µM	> 100 µM
O=C(COc1ccc(/C=C2\Oc3ccccc3C2=O)cc1)Nc1nc2ccccc2s1	6.35 µM	> 100 µM	4.7 µM	60.3 µM	2.92 µM	> 100 µM	2.38 µM	8.57 µM	5.26 µM	53.3 µM	41.4 µM	> 100 µM	39.4 µM	> 100 µM	23.6 µM	> 100 µM	–	–	–	–
COCCOC1=C(Cl)C(=O)c2ccccc2C1=O	3.14 µM	10 µM	2.81 µM	11.7 µM	2.39 µM	6.7 µM	3.17 µM	9.48 µM	6.26 µM	18.8 µM	–	–	3.22 µM	9.52 µM	7.06 µM	25.5 µM	1.81 µM	42 µM	1.75 µM	3.31 µM
NC(N)=NCCCC(NCc1c2ccccc2nc2ccccc12)C(=O)O (stereo not given)	–	> 100 µM	–	> 100 µM	–	> 100 µM	–	> 83.2 µM	–	> 100 µM	–	> 100 µM	–	> 100 µM	–	> 66.4 µM	–	45 µM	–	97.9 µM
CC(=O)NC1C(O[C@H]2C[C@H]3[C@@H]4CC=C5C[C@@H](O)CC[C@]5(C)[C@H]4CC[C@]3(C)[C@H]2[C@H](C)C(=O)CCC(C)C)OCC(O)C1O (stereo not given in full)	2.34 µM	11.5 µM	3.29 µM	12.4 µM	13.1 µM	> 42.5 µM	1.56 µM	22.8 µM	0.553 µM	2.21 µM	2.28 µM	30.9 µM	6.34 µM	20.1 µM	5.29 µM	15.3 µM	1.22 µM	3.11 µM	1.45 µM	5.79 µM
Cn1c(=O)c2nc3sc4c(n3c2n(C)c1=O)C(=O)c1ccccc1C4=O	–	> 57.5 µM	–	> 64.6 µM	–	87.3 µM	–	> 73 µM	–	> 78.2 µM	–	23.6 µM	–	> 100 µM	–	> 56.2 µM	–	38.3 µM	–	> 54.7 µM
COc1ccc(-c2cc(/C=C/C(=O)c3ccc(N)cc3)[nH]n2)cc1OC	1.74 µM	3.66 µM	4.42 µM	17.2 µM	6.21 µM	> 100 µM	0.587 µM	5.31 µM	1.88 µM	4.39 µM	4.25 µM	26 µM	2.62 µM	7.94 µM	2.6 µM	6.91 µM	3.11 µM	16.5 µM	1.92 µM	3.91 µM
Cc1ccc(NC(=O)c2cc(S(=O)(=O)Nc3nnc(-c4ccccc4)c(-c4ccccc4)n3)c(SCc3ccccc3)cc2Cl)cc1	13.7 µM	28.7 µM	19.4 µM	42.2 µM	20.4 µM	41.2 µM	36 µM	> 100 µM	33.9 µM	> 100 µM	–	–	19.4 µM	33.8 µM	–	–	> 100 µM	> 100 µM	13.3 µM	28.6 µM
O=C(c1cccs1)c1c(C(F)(F)F)n([O-])c2cc(Cl)c(Cl)cc2[n+]1=O	0.269 µM	1.66 µM	0.647 µM	2.07 µM	1.05 µM	2.55 µM	< 0.0214 µM	–	0.756 µM	1.91 µM	2.18 µM	4.94 µM	1.77 µM	3.16 µM	0.405 µM	> 100 µM	–	> 100 µM	0.0703 µM	0.493 µM
CSc1nc2nc(-c3ccccc3)c(C)c-2c2n1C(C)C(=O)N2 (stereo not given)	68.2 µM	> 100 µM	83.4 µM	> 100 µM	38.8 µM	> 100 µM	39.3 µM	> 100 µM	29.2 µM	> 100 µM	29.8 µM	> 100 µM	> 100 µM	> 100 µM	33.7 µM	> 100 µM	40.3 µM	> 100 µM	46.7 µM	> 100 µM
Nc1nc(=S)c2ncn(C3OC(COP(=O)(O)O)C(O)C3O)c2[nH]1 (stereo not given)	8.08 µM	> 100 µM	0.717 µM	> 100 µM	0.491 µM	> 100 µM	0.268 µM	> 100 µM	2.53 µM	> 100 µM	0.541 µM	> 100 µM	0.752 µM	> 100 µM	1.2 µM	> 100 µM	0.354 µM	> 100 µM	0.322 µM	14.2 µM
CC(C)Cc1ccc(C(C)/C=C2\CCC(CN(C)C)C2=O)cc1 (stereo not given)	–	30.4 µM	–	4.52 µM	–	24.3 µM	–	9.41 µM	–	8.13 µM	–	–	–	43.1 µM	–	31.5 µM	–	7.91 µM	–	15.6 µM
CC(=O)Oc1ccc(C2=Cc3ccc(OC(C)=O)cc3OC2C)cc1 (stereo not given)	4.91 µM	79.9 µM	5.06 µM	63.7 µM	3.57 µM	73.1 µM	1.7 µM	9.95 µM	4.1 µM	33.8 µM	12.7 µM	60.5 µM	21.1 µM	> 100 µM	20.7 µM	> 100 µM	1.97 µM	19.4 µM	4.09 µM	26.2 µM
COC12C(COC(=O)NCCO)C3=C(C(=O)C(C)=C(N)C3=O)N1CC1NC12 (stereo not given)	45.4 µM	–	–	> 264 µM	–	> 264 µM	–	> 264 µM	41 µM	> 264 µM	–	> 264 µM	78.1 µM	> 264 µM	52.7 µM	> 264 µM	–	> 264 µM	22.2 µM	64.7 µM
COc1cc2nnc3c4cccnc4[nH]c3c2cc1OC	1.66 µM and 0.918 µM	–	3.14 µM and 2.69 µM	50 µM and > 100 µM	2.19 µM	50 µM	0.117 µM and 0.0395 µM	–	1.46 µM and 0.319 µM	7.1 µM and 1.63 µM	0.595 µM and 0.401 µM	5.61 µM and 3.42 µM	7.26 µM and 2.53 µM	50 µM and 7.24 µM	1.81 µM and 1.34 µM	–	–	–	1.43 µM and 1.41 µM	15.7 µM and 4.69 µM
COc1ccc(-c2[nH]c3ccc(OC)cc3c2C=C(C#N)C#N)cc1	0.607 µM	> 100 µM	1.18 µM	> 100 µM	0.389 µM	> 100 µM	0.0188 µM	0.116 µM	14.3 µM	> 100 µM	2.57 µM	> 100 µM	> 100 µM	> 100 µM	0.404 µM	> 100 µM	–	> 100 µM	> 100 µM	> 100 µM
Fc1ccc(NC(c2ccc(F)cc2)C2CCN(CCCCc3ccccc3)CC2)cc1 (stereo not given)	1.67 µM	3.06 µM	1.58 µM	3.13 µM	1.7 µM	3.45 µM	1.57 µM	3.89 µM	1.47 µM	2.84 µM	1.65 µM	3.62 µM	1.7 µM	4.04 µM	1.4 µM	3.03 µM	1.74 µM	4.37 µM	1.55 µM	2.89 µM
CNCc1ccc(-c2cc(-c3nc(-c4ccc(S(=O)(=O)C(C)C)cc4)cnc3N)on2)cc1	4.93 µM	21.5 µM	3.8 µM	19.6 µM	3.08 µM	> 74.4 µM	0.132 µM	2.84 µM	0.362 µM	11.3 µM	15.7 µM	37.8 µM	4.02 µM	21.9 µM	0.492 µM	1.83 µM	0.376 µM	3.07 µM	–	–
CCc1cccc(CC)c1NC(=O)/C(Cl)=C(/Cl)C(=O)O	–	> 69.8 µM	–	–	–	–	–	> 73.6 µM	–	> 56.2 µM	–	–	–	> 100 µM	–	53.7 µM	–	> 86.9 µM	–	> 100 µM
O=[N+]([O-])c1ccc(-c2ccc(C3=Nn4c(CNc5ccccc5Cl)nnc4SC3)o2)cc1	–	> 100 µM	–	–	–	–	–	> 100 µM	–	> 100 µM	–	–	–	> 100 µM	–	> 100 µM	–	> 100 µM	–	> 100 µM
OC(c1ccccc1Br)(c1ccccc1Br)C(F)(F)F	–	34.3 µM	–	–	–	–	–	45.9 µM	–	35.5 µM	–	–	–	70 µM	–	38.3 µM	–	31.6 µM	–	40.2 µM
OCC1CC[N-]CC1.OCC1CC[N-]CC1.[Cl][Pt+2]([Cl])([Cl])[Cl]	19.6 µM	53 µM	33.6 µM	–	33.8 µM	–	8.08 µM	–	34.9 µM	–	15.2 µM	58.1 µM	22.7 µM	51.5 µM	17.1 µM	51.7 µM	–	–	11.4 µM	–
O=C1C2C3C=CC(C2C(=O)N1CO)C1C2C(=O)N(CO)C(=O)C2C31 (stereo not given)	–	> 100 µM	–	–	–	–	–	45 µM	–	> 58.6 µM	–	–	–	> 100 µM	–	> 100 µM	–	> 100 µM	–	> 61.9 µM
C=C(CN1CCc2[nH]c3ccc(F)cc3c2C1)c1ccc(C(=O)Nc2ccccc2N)cc1	2.91 µM	11.2 µM	2.82 µM	11.3 µM	0.621 µM	11.3 µM	0.795 µM	20.1 µM	0.56 µM	3.59 µM	3.76 µM	87.8 µM	4.32 µM	20.6 µM	1.8 µM	31.6 µM	1.92 µM	6.56 µM	–	–
COc1ccc2c(C(=O)O)cc3ccccc3c2c1OC	–	> 100 µM	–	–	–	–	–	> 100 µM	–	31.1 µM	–	–	–	38.7 µM	–	48.9 µM	–	> 100 µM	–	35 µM
